Columns and labels:
Type in all cases: functional
MDA-MB-468 = assay: Cytotoxicity against human MDA-MB-468 cells after 48 hrs by SRB assay; conditions: MDA-MB-468, 48 h
BT-549 = assay: Cytotoxicity against human BT549 cells after 48 hrs by SRB assay; conditions: BT-549, 48 h
Hs-578T = assay: Cytotoxicity against human Hs578T cells after 48 hrs by SRB assay
MDA-MB-231 = assay: Cytotoxicity against human MDA-MB-231 cells after 48 hrs by SRB assay; conditions: MDA-MB-231, 48 h
MCF7 = assay: Cytotoxicity against human MCF7 cells after 48 hrs by SRB assay; conditions: MCF7, 48 h
UO-31 = assay: Cytotoxicity against human UO31 cells after 48 hrs by SRB assay; conditions: UO-31, 48 h
TK-10 = assay: Cytotoxicity against human TK10 cells after 48 hrs by SRB assay; conditions: TK-10, 48 h
SN12C = assay: Cytotoxicity against human SN12C cells after 48 hrs by SRB assay
RXF 393 = assay: Cytotoxicity against human RXF393 cells after 48 hrs by SRB assay; conditions: RXF 393, 48 h
CAKI-1 = assay: Cytotoxicity against human CAKI-1 cells after 48 hrs by SRB assay; conditions: CAKI-1, 48 h
ACHN = assay: Cytotoxicity against human ACHN cells after 48 hrs by SRB assay
A498 = assay: Cytotoxicity against human A498 cells after 48 hrs by SRB assay; conditions: A498, 48 h
OVCAR-5 = assay: Cytotoxicity against human OVCAR5 cells after 48 hrs by SRB assay; conditions: OVCAR-5, 48 h
OVCAR-3 = assay: Cytotoxicity against human OVCAR3 cells after 48 hrs by SRB assay; conditions: OVCAR-3, 48 h
IGROV-1 = assay: Cytotoxicity against human IGROV1 cells after 48 hrs by SRB assay; conditions: IGROV-1, 48 h
UACC-62 = assay: Cytotoxicity against human UACC62 cells after 48 hrs by SRB assay; conditions: UACC-62, 48 h
UACC-257 = assay: Cytotoxicity against human UACC257 cells after 48 hrs by SRB assay; conditions: UACC-257, 48 h
MDA-MB-435 = assay: Cytotoxicity against human MDA-MB-435 cells after 48 hrs by SRB assay; conditions: MDA-MB-435, 48 h
SK-MEL-2 = assay: Cytotoxicity against human SK-MEL-2 cells after 48 hrs by SRB assay; conditions: SK-MEL-2, 48 h, read-out: LC50 (the source's name)
SF-295 = assay: Cytotoxicity against human SF295 cells after 48 hrs by SRB assay; conditions: SF-295, 48 h
SF-539 = assay: Cytotoxicity against human SF539 cells after 48 hrs by SRB assay; conditions: SF-539, 48 h
SF-268 = assay: Cytotoxicity against human SF268 cells after 48 hrs by SRB assay; conditions: SF-268, 48 h
HCT-15 = assay: Cytotoxicity against human HCT15 cells after 48 hrs by SRB assay; conditions: HCT-15, 48 h
HCC 2998 = assay: Cytotoxicity against human HCC2998 cells after 48 hrs by SRB assay; conditions: HCC 2998, 48 h
HOP-92 = assay: Cytotoxicity against human HOP92 cells after 48 hrs by SRB assay; conditions: HOP-92, 48 h
NCI-H226 = assay: Cytotoxicity against human NCI-H226 cells after 48 hrs by SRB assay; conditions: NCI-H226, 48 h
EKVX = assay: Cytotoxicity against human EKVX cells after 48 hrs by SRB assay
RPMI-8226 = assay: Cytotoxicity against human RPMI8226 cells after 48 hrs by SRB assay; conditions: RPMI-8226, 48 h
[1] = Cytotoxicity against human non-small cell lung cancer cells after 48 hrs by SRB assay; conditions: Cancer cell lines
[2] = Cytotoxicity against human prostate cancer cells after 48 hrs by SRB assay; conditions: Cancer cell lines
[3] = Cytotoxicity against human renal cancer cells after 48 hrs by SRB assay; conditions: Cancer cell lines
[4] = Cytotoxicity against human melanoma cells after 48 hrs by SRB assay; conditions: Melanoma cell
[5] = Cytotoxicity against human CNS cancer cells after 48 hrs by SRB assay; conditions: Cancer cell lines
[6] = Cytotoxicity against human colon cancer cells after 48 hrs by SRB assay; conditions: Cancer cell lines
[7] = Cytotoxicity against human leukemia cells after 48 hrs by SRB assay; conditions: Leukemia cell
[8] = read-out: LC50 (the source's name)

COc1ccc(C2CC(c3ccc4ccccc4c3)=NN2C2=NC(=O)/C(=C3\C(=O)Nc4ccc(Br)cc43)S2)cc1 (stereo unspecified)
GI50 (MDA-MB-468): 0.0223 µM | TGI (MDA-MB-468): 0.0622 µM | CC50 (MDA-MB-468; [8]): 0.19 µM | GI50 (BT-549): 0.553 µM | TGI (BT-549): 7.74 µM | CC50 (BT-549; [8]): 35.1 µM | GI50 (Hs-578T): 0.0644 µM | TGI (Hs-578T): > 1.03 µM | CC50 (Hs-578T; [8]): > 100 µM | GI50 (MDA-MB-231): 0.0145 µM | TGI (MDA-MB-231): 0.0627 µM | CC50 (MDA-MB-231; [8]): 0.349 µM | GI50 (MCF7): 0.0264 µM | TGI (MCF7): > 0.0747 µM | CC50 (MCF7; [8]): > 0.586 µM | GI50 (UO-31): 0.0578 µM | GI50 (TK-10): 0.17 µM | TGI (TK-10): 0.522 µM | CC50 (TK-10; [8]): > 100 µM | GI50 (SN12C): 0.0434 µM | TGI (SN12C): 0.223 µM | CC50 (SN12C; [8]): 1.7 µM | GI50 (RXF 393): 0.0197 µM | TGI (RXF 393): 0.0403 µM | CC50 (RXF 393; [8]): 0.0822 µM | GI50 (CAKI-1): 0.0965 µM | TGI (CAKI-1): 0.608 µM | CC50 (CAKI-1; [8]): > 100 µM | GI50 (ACHN): 0.0267 µM | TGI (ACHN): 0.0646 µM | CC50 (ACHN; [8]): > 32.3 µM | GI50 (A498): 0.0251 µM | TGI (A498): 0.0786 µM | CC50 (A498; [8]): 0.316 µM | GI50 (OVCAR-5): 0.0336 µM | TGI (OVCAR-5): 0.131 µM | CC50 (OVCAR-5; [8]): 2.11 µM | GI50 (OVCAR-3): 0.0216 µM | TGI (OVCAR-3): 0.045 µM | CC50 (OVCAR-3; [8]): 0.0937 µM | GI50 (IGROV-1): 0.0498 µM | TGI (IGROV-1): 0.451 µM | CC50 (IGROV-1; [8]): > 100 µM | GI50 (UACC-62): 0.0547 µM | TGI (UACC-62): 0.261 µM | CC50 (UACC-62; [8]): 1.19 µM | GI50 (UACC-257): 0.0511 µM | TGI (UACC-257): 0.318 µM | CC50 (UACC-257; [8]): > 100 µM | GI50 (MDA-MB-435): 0.0318 µM | TGI (MDA-MB-435): 0.106 µM | CC50 (MDA-MB-435; [8]): 2.44 µM | CC50 (SK-MEL-2): 0.882 µM | GI50 (SF-295): 0.0265 µM | TGI (SF-295): 0.0786 µM | CC50 (SF-295; [8]): 1.17 µM | GI50 (SF-539): 0.0231 µM | TGI (SF-539): 0.0542 µM | CC50 (SF-539; [8]): 0.296 µM | GI50 (SF-268): 0.0365 µM | TGI (SF-268): 0.222 µM | CC50 (SF-268; [8]): 9.63 µM | GI50 (HCT-15): 0.0629 µM | TGI (HCT-15): 0.325 µM | CC50 (HCT-15; [8]): > 2.45 µM | GI50 (HCC 2998): 0.0252 µM | TGI (HCC 2998): 0.0658 µM | CC50 (HCC 2998; [8]): 0.272 µM | GI50 (HOP-92): < 0.01 µM | TGI (HOP-92): 0.0242 µM | CC50 (HOP-92; [8]): 1.47 µM | GI50 (NCI-H226): 0.0215 µM | TGI (NCI-H226): 0.173 µM | CC50 (NCI-H226; [8]): 0.586 µM | GI50 (EKVX): 0.0476 µM | TGI (EKVX): 0.426 µM | CC50 (EKVX; [8]): > 100 µM | GI50 (RPMI-8226): 0.214 µM | TGI (RPMI-8226): 1.4 µM | CC50 (RPMI-8226; [8]): > 42.2 µM | GI50 [1]: 0.054 µM | TGI [1]: 0.22 µM | CC50 [1, 8]: 41.5 µM | GI50 [2]: 0.059 µM | LC50 [2]: 13.8 µM | TGI [2]: 0.51 µM | GI50 [3]: 0.064 µM | LC50 [3]: 5.19 µM | TGI [3]: 0.33 µM | GI50 [4]: 0.069 µM | TGI [4]: 0.19 µM | CC50 [4, 8]: 3.52 µM | GI50 [5]: 0.046 µM | LC50 (concentration giving 50% net cell kill) [5]: 3.42 µM | TGI [5]: 0.21 µM | GI50 [6]: 0.05 µM | LC50 (concentration lethal to 50% of cells) [6]: 1.15 µM | TGI [6]: 0.14 µM | GI50 [7]: 0.13 µM | TGI [7]: 3.37 µM | CC50 [7, 8]: 87.8 µM

Source: ChEMBL document CHEMBL2169792, “Synthesis of new 4-thiazolidinone-, pyrazoline-, and isatin-based conjugates with promising antitumor activity” (J Med Chem, 2012)
